This is an account of results in patent US8138191B2, “Inhibitor compounds and cancer treatment methods” (Critical Outcome Technologies Inc., priority 2007, dated 2012).

Read-outs that look alike come from different tables or passages of the source.

For one series, the system named is DMS114 cells. Kind of series: Cell cycle analysis of DMS114 cells by FACS. As to conditions: DMS114, 1.5 μM, 24 h. The series is classed as cell-based, human. As to the method: Approximately 2×10^5 DMS114 cells were incubated for 24 h with the indicated concentrations of COTI-219. Following incubation with COTI-219 the cells were washed and re-suspended in 0.5 ml of BP Pharmingen Propidium Iodide staining solution (Cat. No. 556463) for FACS analysis in order to determine the changes in the cell cycle.

Series [1] is described as follows: B-A Permeability (TC7, pH 7.4/7.4) + verapamil. The note with it: human, Caco-2, pH 7.4, with verapamil (concentration not stated), 1.0E−05 M. Type of series: in vitro ADME. A general note: Caco-2 cells form a polarised layer with tight junctions and transporters.
The subject of another series is DMS114 and SHP77 cells. Kind of series: Western blotting of AKT pSer473 and AKT phospho-protein targets. The series is classed as cell-based, human. The note with it: for mTOR phospho-Ser 2448: 300 nM, time course. The procedure: Routine laboratory methods were employed for the production of cellular lysates, protein quantification, SDS-PAGE and western blotting. All antibodies were obtained from Cell Signaling and Abcam. To determine total AKT & AKT2 in DMS114 cells, 5×10^4 cells were incubated for 48 h with 10-100 ng of AKT2 siRNA or a scrambled control oligonucleotide. Cells were lysed and 50 μg of protein was separated by SDS-PAGE and blotted with antibody to total AKT or AKT2.
The phospho-AKT status at Ser473 was determined in the presence of COTI-2 utilizing western blotting. […] The inhibition of AKT phosphorylation at Ser473 correlates with the reduction in the phosphorylation of GSK-3α/β (pSer21/9), which is a downstream target of activated phospho-AKT. […] The complete time course of the AKT phospho-Ser473 status in DMS114 and SHP77 cells during incubation with COTI-2 is documented in FIG. 39.
A complex relationship exists between Raptor- and Rictor-containing mTor complexes mTORC1 and mTORC2, respectively, and AKT. mTORC2 activates AKT by Ser473 phosphorylation; in turn, activated AKT phosphorylates TSC2, which prevents its interaction with Rheb and thus the hydrolysis of GTP associated with Rheb. As a result, Rheb-GTP activates mTOR by phosphorylation on Ser2448. […] The results shown in FIGS. 40-45 agree with this hypothesis. […] Phosphorylation of the PTEN C terminal was reported to stabilize PTEN and protect against ubiquitin-mediated degradation (Nat Rev Cancer, 6: 184-192). One implication of this observation is that COTI-2 may activate PTEN and thus, by reducing the amount of PIP3, contribute to the inhibition of AKT activity.

A further series concerns H226. Kind of series: Flow cytometric analysis of cell death (Annexin V/PI), H226. Type of series: cell-based, human. As to conditions: H226, 15 μM, 48 h. The procedure:
(§1) All cell lines were grown and exposed to various concentrations of COTI-2 or vehicle only control and the percentage of dead or dying cells were determined 24 and 48 h post-exposure by Annexin V and propidium iodide.
HL-60 (human promyelocytic leukemia) cells were grown as non-adherent cells in flasks in RPMI 1640 medium supplemented with 10% FBS. H226 (human non-small cell lung cancer) cells were grown in Eagle's MEM supplemented with 10% FBS. Both cell lines were obtained from the American Type Culture Collection (ATCC)(Rockville, Md.) and maintained at 37° C. in a humidified 5% CO2 atmosphere.
(§2) Cells were plated in 25-cm^2 flasks and treated with COTI-2 (0-100 μM) added from a stock DMSO/DMEM solution such that DMSO concentrations never exceeded 0.5%. Control cells were treated with stock DMSO/DMEM. […] Resuspended cells (100 μl) were incubated in the dark with 10 μl propidium iodide (PI, 50 ng per ml; Sigma, St. Louis, Mo.) plus Annexin V-FITC (25 ng per ml, green fluorescence; BD Biosciences, Mississauga, Ontario). […] Samples were analyzed for combined Annexin V/PI staining (to assess dead plus apoptotic cells) using a Beckman Coulter EPCS XL-MCL flow cytometer (Beckman Coulter, Hileah, Fla.) and the data were analyzed with CellQuest software.

For series [2], the system named is Akt kinase activity in SHP-77 cells. Kind of series: Akt kinase activity (immunoprecipitated Akt, GSK-3 phosphorylation), SHP-77. As to conditions: SHP-77, 250 nM, 2-24 hrs.
Description: Briefly, after lysing the cells in a protein non-denaturing buffer, Akt is immunoprecipitated with immobilized antibody. The kinase reaction catalyzed by immunoprecipitated Akt consists of in vitro phosphorylation of supplemented recombinant GSK-3, a natural in vivo Akt substrate, in the presence of added ATP. The amount of phosphorylated GSK-3 is determined by western blot analysis with phospho-GSK-3αβ(Ser21/9) antibody.
Briefly, after lysing the cells in a protein non-denaturing buffer, AKT was immunoprecipitated with immobilized antibody. The kinase reaction catalyzed by immunoprecipitated AKT consists of in vitro phosphorylation of supplemented recombinant GSK-3, a natural in vivo AKT substrate, in the presence of added ATP. The amount of phosphorylated GSK-3 was determined by western blot analysis with phospho-GSK-3αβ(Ser21/9) antibody.
A further series relates to SHP77 cells. Nature of the series: Western blots of cellular lysates of SHP77 cells treated with COTI-2. The series is classed as cell-based, human. The note with it: 250 nM. The procedure:
To confirm this mechanism SHP77 cells were treated with 250 nM of COTI-2 and incubated for 3 and 6 hours. Phospho-Akt expression was decreased as compared to control at both 3 and 6 hours, with corresponding increases in Akt levels.
Background: In western blotting, separated proteins are transferred to a membrane and probed.

Series [3] concerns normal human peripheral blood mononuclear cells (PBMCs). Kind of series: Flow cytometric analysis of cell death (Annexin V/PI), PBMCs. The series is classed as cell-based. The note with it: PBMC, PBMCs from healthy male and female subjects. The procedure: as §1
Blood samples from 2 healthy human volunteers (person) were obtained in 5 ml Vacutainers® containing 100 USP sodium heparin (Becton Dickinson, Franklin Lake, N.J.) and rocked gently to mix, then kept at room temperature. Blood was diluted 1:1 with phosphate buffered saline (PBS) and layered over an equal volume of room temperature Histopaque-1083® (Sigma Diagnostics, St. Louis, Mo.) in a 15 ml conical bottom polyethylene (PET) centrifuge tube (Corning Corporation, Corning, N.Y.). This was centrifuged at 400×g for 30 minutes at 20° C. […]
as §2, with “0.5%.” for “0.5%. Control cells were treated with stock DMSO/DMEM.”
On the technique in general: In flow cytometry, cells or beads pass a laser one at a time.

For the compound `CN1CCN(C(=S)NN=C2c3ncccc3-c3cccnc32)CC1` [COTI-219], the cell cycle effect result in the series on DMS114 cells is recorded as “cell cycle arrest in G1”.

For `S=C(N/N=C1/CCCc2cccnc21)N1CCN(c2ccccn2)CC1` [COTI-2], the recovery at 10 µM in series [1] (1st determination, read-out: Percent Recovery 1st) amounted to 49%; in series [1] (2nd determination, read-out: Percent Recovery 2nd), 46%; in series [1] (mean, read-out: Percent Recovery Mean) it was 47%. For the same compound, the “phosphorylation of GSK-3α/β (pSer21/9)” value in the series with DMS114 and SHP77 cells (250 nM) is reported as “reduction”. Moreover, in the series on DMS114 and SHP77 cells (250 nM, 2 h), the “AKT Ser473 phosphorylation” value is listed as “profound inhibition”. Further, in the series on DMS114 and SHP77 cells (DMS114 cells), the “PTEN phospho-Ser380” value was “strong but transient increase”. Moreover, the “mTOR phospho-Ser 2448” value is “initial decrease in phospho-Ser 2448 at 2 hrs followed by a more sustained decrease at 24 and 48 hrs” in the series with DMS114 and SHP77 cells (DMS114 cells); “only the decrease at 2 hrs of incubation was observed” in the series on DMS114 and SHP77 cells (SHP77 cells). In the series on H226, the “induction of apoptosis and death” value is given as “approximately 40%”. Further, the Akt kinase activity entry in series [2] was “more gradual decrease”. Further, the “Caspase 8 level of expression” value in the series on SHP77 cells was “remained constant”. In the series on SHP77 cells, the phospho-STAT3 expression result is listed as “no change”. For the same compound, the Phospho-Akt expression result in the series with SHP77 cells (3 and 6 hours) was “decreased”. Moreover, the “phospho-Caspase 9” value with SHP77 cells (3 and 6 hrs) is “profound suppression”. For the same compound, the “decrease in total STAT3” value with SHP77 cells (6 hrs) is listed as about 30%. Also, the IC50 (in general, the concentration needed to halve the response being measured) in series [3] was over 100 µM.
